Results reported in patent US10150760B2, “Compounds for use in preparing heterocyclic triazole agonists of the APJ receptor” (AMGEN INC., priority 2016, dated 2018).

Molecular target: human APJ receptor (Homo sapiens (Human), UniProt P35414)
Assay: [35S]GTPγS binding assay on membranes from CHO cells stably expressing human APJ receptor
Type: biochemical
Conditions: read-out: Activity hAPJ SPA EC50 IP
Method in brief: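 Membranes from CHO cells stably expressing human APJ incubated with ligand, 0.2 nM [35S]GTPγS and WGA SPA beads in HEPES pH 7.5 with 5 mM MgCl2, 200 mM NaCl, 3 μM GDP, 90 min at RT. Nonspecific binding defined with 100 μM GTPγS; EC50 by non-linear regression.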

Chain of human APJ receptor (P35414 whole entry): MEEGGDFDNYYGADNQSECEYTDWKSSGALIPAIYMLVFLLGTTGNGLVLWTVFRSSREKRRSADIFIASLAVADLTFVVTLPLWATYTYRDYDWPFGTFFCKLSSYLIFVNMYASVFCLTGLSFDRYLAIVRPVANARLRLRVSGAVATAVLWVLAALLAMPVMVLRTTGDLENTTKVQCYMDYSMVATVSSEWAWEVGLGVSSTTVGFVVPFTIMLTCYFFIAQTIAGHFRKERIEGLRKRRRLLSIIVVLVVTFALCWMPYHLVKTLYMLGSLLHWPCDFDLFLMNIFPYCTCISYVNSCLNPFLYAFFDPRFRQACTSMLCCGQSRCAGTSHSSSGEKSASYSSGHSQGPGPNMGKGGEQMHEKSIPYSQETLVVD

| Compound | EC50 [nM] |
| --- | --- |
| Cc1cnc([C@@H](C)[C@H](C)S(=O)(=O)Nc2nnc([C@@H]3CCCO3)n2-c2c(F)cccc2F)nc1 [Example 18.0, (2S,3R)-N-(4-(2,6-difluorophenyl)-5-((2S)-tetrahydro-2-furanyl)-4H-1,2,4-triazol-3-yl)-3-(5-methyl-2-pyrimidinyl)-2-butanesulfonamide] | 120 |
| (2S,3R)-N-(4-(2,6-dimethoxyphenyl)-5-((R)-1,1-dioxidotetahydrothiophen-3-yl)-4H-1,2,4-triazol-3-yl)-3-(5-methylpyrimidin-2-yl)butane-2-sulfonamide or (2S,3R)-N-(4-(2,6-dimethoxyphenyl)-5-((S)-1,1-dioxidotetrahydrothiophen-3-yl)-4H-1,2,4-triazol-3-yl)-3-(5-methylpyrimidin-2-yl)butane-2-sulfonamide [Example 184.0] | 1380 |
| (2S,3R)-N-(4-(2,6-difluorophenyl)-5-((3R)-tetrahydro-3-furanyl)-4H-1,2,4-triazol-3-yl)-3-(5-methyl-2-pyrimidinyl)-2-butanesulfonamide or (2S,3R)-N-(4-(2,6-difluorophenyl)-5-((3S)-tetrahydro-3-furanyl)-4H-1,2,4-triazol-3-yl)-3-(5-methyl-2-pyrimidinyl)-2-butanesulfonamide [Example 20.0] | 160 |
| COc1ncnc(OC)c1-n1c(NS(=O)(=O)[C@@H](C)[C@H](C)c2ncc(Cl)cn2)nnc1[C@H]1CCOC1 (single isomer, unassigned) [Example 93.0, (2S,3R)-3-(5-chloropyrimidin-2-yl)-N-(4-(4,6-dimethoxypyrimidin-5-yl)-5-((R)-tetrahydrofuran-3-yl)-4H-1,2,4-triazol-3-yl)butane-2-sulfonamide or (2S,3R)-3-(5-chloropyrimidin-2-yl)-N-(4-(4,6-dimethoxypyrimidin-5-yl)-5-((S)-tetrahydrofuran-3-yl)-4H-1,2,4-triazol-3-yl)butane-2-sulfonamide] | 170 |
| COc1cccc(OC)c1-n1c(NS(=O)(=O)[C@@H](C)[C@H](C)c2ccc(Cl)cn2)nnc1C1CCOC1 (single isomer, unassigned) [Example 410.0] | 19 |
| COc1cccc(OC)c1-n1c(NS(=O)(=O)[C@@H](C)[C@H](C)c2cnc(C)cn2)nnc1[C@H]1CCCO1 (single isomer, unassigned) [Example 90.0, (2S,3R)-N-(4-(2,6-dimethoxyphenyl)-5-((S)-tetrahydrofuran-2-yl)-4H-1,2,4-triazol-3-yl)-3-(5-methylpyrazin-2-yl)butane-2-sulfonamide or (2S,3R)-N-(4-(2,6-dimethoxyphenyl)-5-((R)-tetrahydrofuran-2-yl)-4H-1,2,4-triazol-3-yl)-3-(5-methylpyrazin-2-yl)butane-2-sulfonamide] | 370 |
| (1S,2S)-1-(5-chloro-2-pyrimidinyl)-N-(4-(1,3-dimethoxy-2-propanyl)-5-((2R,5R)-5-methyltetrahydro-2-furanyl)-4H-1,2,4-triazol-3-yl)-1-(2-propanyloxy)-2-propanesulfonamide or (1S,2S)-1-(5-chloro-2-pyrimidinyl)-N-(4-(1,3-dimethoxy-2-propanyl)-5-((2S,5S)-5-methyltetrahydro-2-furanyl)-4H-1,2,4-triazol-3-yl)-1-(2-propanyloxy)-2-propanesulfonamide [Example 354.0] | 92 |
| CO[C@H](c1ncc(Cl)cn1)[C@H](C)S(=O)(=O)Nc1nnc([C@@H]2COCCO2)n1C(C1CC1)C1CC1 (single isomer, unassigned) [Example 338.0, (1R,2S)-1-(5-chloro-2-pyrimidinyl)-N-(4-(dicyclopropylmethyl)-5-((2R)-1,4-dioxan-2-yl)-4H-1,2,4-triazol-3-yl)-1-methoxy-2-propanesulfonamide or (1R,2S)-1-(5-chloro-2-pyrimidinyl)-N-(4-(dicyclopropylmethyl)-5-((2S)-1,4-dioxan-2-yl)-4H-1,2,4-triazol-3-yl)-1-methoxy-2-propanesulfonamide] | 110 |
| COc1cccc(OC)c1-n1c(NS(=O)(=O)[C@@H](C)[C@H](C)c2ncc(Cl)cn2)nnc1[C@H]1CCCCO1 (single isomer, unassigned) [Example 88.0, (2S,3R)-3-(5-chloropyrimidin-2-yl)-N-(4-(2,6-dimethoxyphenyl)-5-((S)-tetrahydro-2H-pyran-2-yl)-4H-1,2,4-triazol-3-yl)butane-2-sulfonamide or (2S,3R)-3-(5-chloropyrimidin-2-yl)-N-(4-(2,6-dimethoxyphenyl)-5-((S)-tetrahydro-2H-pyran-2-yl)-4H-1,2,4-triazol-3-yl)butane-2-sulfonamide] | 0.42 |
| COc1cccc(OC)c1-n1c(NS(=O)(=O)[C@@H](C)[C@@H](OC(C)C)c2ncc(Cl)cn2)nnc1[C@H]1CCC(C)(C)O1 (single isomer, unassigned) [Example 414.0, (1S,2S)-1-(5-chloro-2-pyrimidinyl)-N-(4-(2,6-dimethoxyphenyl)-5-((2R)-5,5-dimethyltetrahydro-2-furanyl)-4H-1,2,4-triazol-3-yl)-1-(2-propanyloxy)-2-propanesulfonamide or (1S,2S)-1-(5-chloro-2-pyrimidinyl)-N-(4-(2,6-dimethoxyphenyl)-5-((2S)-5,5-dimethyltetrahydro-2-furanyl)-4H-1,2,4-triazol-3-yl)-1-(2-propanyloxy)-2-propanesulfonamide] | 1.2 |
| COc1cccc(OC)c1-n1c(NS(=O)(=O)[C@@H](C)[C@@H](OC(C)C)c2ccc(C)cn2)nnc1[C@H]1CCOC1 (single isomer, unassigned) [Example 408.0, (1S,2S)-N-(4-(2,6-dimethoxyphenyl)-5-((3R)-tetrahydro-3-furanyl)-4H-1,2,4-triazol-3-yl)-1-(5-methyl-2-pyridinyl)-1-(2-propanyloxy)-2-propanesulfonamide or (1S,2S)-N-(4-(2,6-dimethoxyphenyl)-5-((3S)-tetrahydro-3-furanyl)-4H-1,2,4-triazol-3-yl)-1-(5-methyl-2-pyridinyl)-1-(2-propanyloxy)-2-propanesulfonamide] | 64 |
| CO[C@H](c1ncc(Cl)cn1)[C@H](C)S(=O)(=O)Nc1nnc([C@@H]2COCCO2)n1C1(C)CC1 (single isomer, unassigned) [Example 271.0, (1R,2S)-N-(5-((R)-1,4-dioxan-2-yl)-4-(1-methylcyclopropyl)-4H-1,2,4-triazol-3-yl)-1-(5-chloropyrimidin-2-yl)-1-methoxypropane-2-sulfonamide or (1R,2S)-N-(5-((S)-1,4-dioxan-2-yl)-4-(1-methylcyclopropyl)-4H-1,2,4-triazol-3-yl)-1-(5-chloropyrimidin-2-yl)-1-methoxypropane-2-sulfonamide] | 140 |
| COCC(COC)n1c(NS(=O)(=O)[C@@H](C)[C@H](OC)c2ncc(Cl)cn2)nnc1[C@H]1CCCO1 [Example 330.0, (1R,2S)-1-(5-chloro-2-pyrimidinyl)-N-(4-(1,3-dimethoxy-2-propanyl)-5-((2R)-tetrahydro-2-furanyl)-4H-1,2,4-triazol-3-yl)-1-methoxy-2-propanesulfonamide] | 160 |
| (1R,2S)-1-(5-chloro-2-pyridinyl)-N-(4-(1,3-dimethoxy-2-propanyl)-5-((2R,5R)-5-methyltetrahydro-2-furanyl)-4H-1,2,4-triazol-3-yl)-1-methoxy-2-propanesulfonamide or (1R,2S)-1-(5-chloro-2-pyridinyl)-N-(4-(1,3-dimethoxy-2-propanyl)-5-((2S,5S)-5-methyltetrahydro-2-furanyl)-4H-1,2,4-triazol-3-yl)-1-methoxy-2-propanesulfonamide [Example 380.0] | 60 |
| CO[C@H](c1ncc(Cl)cn1)[C@H](C)S(=O)(=O)Nc1nnc([C@@H]2CCCO2)n1-c1ccccc1F [Example 244.0, (1R,2S)-1-(5-chloro-2-pyrimidinyl)-N-(4-(2-fluorophenyl)-5-((2S)-tetrahydro-2-furanyl)-4H-1,2,4-triazol-3-yl)-1-methoxy-2-propanesulfonamide] | 21 |
| COc1cccc(OC)c1-n1c(NS(=O)(=O)[C@@H](C)[C@@H](OC(C)C)c2ncc(Cl)cn2)nnc1[C@@H]1COCCO1 (single isomer, unassigned) [Example 283.0, (1S,2S)-1-(5-chloropyrimidin-2-yl)-N-(4-(2,6-dimethoxyphenyl)-5-((R)-1,4-dioxan-2-yl)-4H-1,2,4-triazol-3-yl)-1-isopropoxypropane-2-sulfonamide or (1S,2S)-1-(5-chloropyrimidin-2-yl)-N-(4-(2,6-dimethoxyphenyl)-5-((S)-1,4-dioxan-2-yl)-4H-1,2,4-triazol-3-yl)-1-isopropoxypropane-2-sulfonamide] | 0.63 |
| COCCn1c(NS(=O)(=O)[C@@H](C)[C@H](OC)c2ncc(Cl)cn2)nnc1[C@H]1CCOC1 (single isomer, unassigned) [Example 309.0, (1R,2S)-1-(5-chloropyrimidin-2-yl)-1-methoxy-N-(4-(2-methoxyethyl)-5-((R)-tetrahydrofuran-3-yl)-4H-1,2,4-triazol-3-yl)propane-2-sulfonamide or (1R,2S)-1-(5-chloropyrimidin-2-yl)-1-methoxy-N-(4-(2-methoxyethyl)-5-((S)-tetrahydrofuran-3-yl)-4H-1,2,4-triazol-3-yl)propane-2-sulfonamide] | 2600 |
| COc1cccc(OC)c1-n1c(NS(=O)(=O)[C@@H](C)[C@H](C)c2ncc(F)cn2)nnc1[C@H]1CCOC1 (single isomer, unassigned) [Example 274.0, (2S,3R)-N-(4-(2,6-dimethoxyphenyl)-5-((R)-tetrahydrofuran-3-yl)-4H-1,2,4-triazol-3-yl)-3-(5-fluoropyrimidin-2-yl)butane-2-sulfonamide or (2S,3R)-N-(4-(2,6-dimethoxyphenyl)-5-((S)-tetrahydrofuran-3-yl)-4H-1,2,4-triazol-3-yl)-3-(5-fluoropyrimidin-2-yl)butane-2-sulfonamide] | 78 |
